From PubChem BioAssay (NCI)
Where “and” joins values, the source holds several entries; their conditions need not be identical. Identical values can stand only once.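 Where inhibition never reached the appropriate level, the endpoint shown equals the highest concentration tested. Otherwise, values were interpolated linearly from a five-concentration, 48-hour dose response in 96-well plates. GI50 = concentration required for 50% inhibition of growth. TGI is the concentration that stops growth completely.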

Key:
Experiment in all cases: NCI-60 cell line screen, 48 h
U251 CNS = tested on: U251 CNS
T-47D breast = tested on: T-47D breast
MCF7 breast = tested on: MCF7 breast
RPMI-8226 leukemia = tested on: RPMI-8226 leukemia
SW-620 colon = tested on: SW-620 colon
MDA-MB-231 breast = tested on: MDA-MB-231 breast
KM20L2 colon = tested on: KM20L2 colon
DLD-1 colon = tested on: DLD-1 colon
HOP-18 NSCLC = tested on: HOP-18 NSCLC
DMS 273 small cell lung = tested on: DMS 273 small cell lung

Compound | TGI (U251 CNS) [µM] | TGI (T-47D breast) [µM] | TGI (MCF7 breast) [µM] | TGI (RPMI-8226 leukemia) [µM] | TGI (SW-620 colon) [µM] | TGI (MDA-MB-231 breast) [µM] | GI50 (U251 CNS) [µM] | GI50 (T-47D breast) [µM] | GI50 (MCF7 breast) [µM] | GI50 (RPMI-8226 leukemia) [µM] | GI50 (SW-620 colon) [µM] | GI50 (MDA-MB-231 breast) [µM] | TGI (KM20L2 colon) | TGI (DLD-1 colon) [µM] | TGI (HOP-18 NSCLC) [µM] | TGI (DMS 273 small cell lung) | GI50 (DMS 273 small cell lung) [µM] | GI50 (KM20L2 colon) [µM] | GI50 (DLD-1 colon) [µM]
OCCNc1ncnc2c1ncn2C1OC(CO)C(O)C1O (stereo unspecified) | > 100 | > 100 | > 100 | > 100 | > 100 | 89.4 | – | – | – | – | – | – | – | – | – | – | – | – | –
CCN(C(=O)CCl)C(C)(C)C(SSSC(c1ccc(Cl)cc1)C(C)(C)N(CC)C(=O)CCl)c1ccc(Cl)cc1 (stereo unspecified) | 17.7 | 26.3 | 21.9 | 18.2 | 14.6 | 14.6 | 4.72 | 5.3 | 5.09 | 3.99 | 3.85 | 3.58 | – | – | – | – | – | – | –
Cc1ccc2c(Nc3cccc(Cl)c3F)ncc(NC(=O)c3csc4c(N)ncnc34)c2c1 | > 100 | > 100 | > 100 | > 100 | > 100 | > 94 | > 76.3 | > 100 | > 100 | 2.81 | 1.21 | 0.164 | – | – | – | – | – | – | –
COc1ccc(/C=C/C(=O)c2ccc3cc(OC)c(OC)cc3c2)cc1OC | 15.2 | 33.5 | 12.1 | 5.07 | 14.2 | > 100 | 3.33 | 2.93 | 2.69 | 1.9 | 3.32 | 6.19 | – | – | – | – | – | – | –
CC(=O)Nc1ccccc1-c1cnc2ccccc2n1 | > 100 | – | – | > 100 | > 100 | – | – | – | – | – | – | – | > 100 µM | > 100 | > 100 | – | – | – | –
COC(=O)c1ccc2c(c1)C(=O)c1c-2n(CCCN)c(=O)c2cc([N+](=O)[O-])ccc12 | 0.368 | 1.34 | 0.214 | 0.117 | 1.27 | 0.96 | < 0.0127 | < 0.0173 | < 0.01 | < 0.01 | < 0.01 | 0.426 | – | – | – | – | – | – | –
NC(CSc1nc2ccccn2c1[N+](=O)[O-])C(=O)O (stereo unspecified) | > 100 | > 100 | > 100 | > 100 | > 100 | > 100 | – | – | – | – | – | – | – | – | – | – | – | – | –
O=C(/C=C/c1ccccc1O)c1cccnc1 | > 100 | – | – | – | > 100 | – | – | – | – | – | – | – | > 100 µM | > 100 | > 100 | > 100 µM | – | – | –
C=CC(=O)N1CCC([C@@H]2CCNc3c(C(N)=O)c(-c4ccc(Oc5ccccc5)cc4)nn32)CC1 | > 77.1 | > 87.1 | > 100 | 42.8 | 46.1 | 56.4 | 17.6 | 3.49 | 23.1 | 14.5 | 19.2 | 18.4 | – | – | – | – | – | – | –
COc1cc2ccnc(-c3c4ccccc4c(N)c4c(OC)c(OC)ccc34)c2cc1OC | 14 | – | – | – | 13.1 | – | – | – | – | – | – | – | – | 16.6 | – | 3.47 µM | – | – | –
C[C@]12CCC3c4ccc(O)cc4CCC3C1Cc1ccc(O)cc12 (stereo partly specified) | 17.4 | 30.9 | 17.8 | 18 | 14.9 | 22.2 | 5.24 | 13.1 | 4.83 | 3.75 | 3.7 | 7.44 | – | – | – | – | – | – | –
COc1cc2c(c(OC)c1OC)-c1ccc(SC)c(=O)cc1[C@@H](NCc1cccc(C#N)c1)CC2 | 0.0434 | – | – | 40.7 | > 75 | – | – | – | – | < 0.0075 | < 0.0075 | – | 0.0302 µM and < 0.0075 µM | > 75 | – | < 0.0075 µM | < 0.0075 | < 0.0075 | < 0.0075
CO[C@H]1C[C@@H]2CC[C@@H](C)[C@@](O)(O2)C(=O)C(=O)N2CCCC[C@H]2C(=O)O[C@H]([C@H](C)C[C@@H]2CC[C@@H](OP(C)(C)=O)[C@H](OC)C2)CC(=O)[C@H](C)/C=C(\C)[C@@H](O)[C@@H](OC)C(=O)[C@H](C)C[C@H](C)/C=C/C=C/C=C/1C | 19.2 | 23 | 21 | 40.6 | 27.9 | 27.7 | 0.0208 | < 0.01 | 0.402 | 8.49 | 12.1 | 12.4 | – | – | – | – | – | – | –
N#Cc1cccc(/C=C(/C(=O)c2ccccc2)c2ccccc2)c1 | 12.5 | 17.3 | 15.9 | 9.27 | 15.5 | > 100 | 3.43 | 3.78 | 3.85 | 2.82 | 3.28 | 4.25 | – | – | – | – | – | – | –
Cc1nc(-c2nc(C)c(C(=O)NN(C)C)s2)sc1C(=O)NN(C)C | > 100 | – | – | 91.2 | – | – | – | – | – | – | – | – | > 100 µM | > 100 | > 100 | 38.9 µM | – | – | –
O=C(O)c1ccc(NCc2nc3cc4ccccc4cc3[nH]2)cc1 | > 100 | > 100 | 46.9 | > 100 | > 100 | > 100 | – | – | – | – | – | – | – | – | – | – | – | – | –
CC(=O)C1C(=O)C(=O)N(c2ccccc2N2C(=O)C(=O)C(C(C)=O)C2=O)C1=O (stereo unspecified) | > 100 | – | – | > 100 | > 100 | – | – | – | – | – | – | – | > 100 µM | > 100 | > 100 | – | – | – | –
Nc1ncnc2c(C3OC(CO)C(O)C3O)scc12 (stereo unspecified) | > 100 | – | – | – | > 100 | – | 2.45 | – | – | – | – | – | 1.07 µM and 1.64 µM | – | 4.54 | 0.151 µM and 0.11 µM | – | – | –
c1ccc(-c2nnc(Nc3ccc4c(c3)OCCO4)o2)c(NCc2ccncc2)c1 | > 35.5 | 16.9 | > 38.8 | 7.63 | > 100 | > 100 | 0.0369 | 1.65 | 0.0904 | 0.0445 | 0.0255 | 0.0769 | – | – | – | – | – | – | –
S=C=NCc1ccccc1 | 12.2 | 33.3 | 28.6 | > 100 | > 37.3 | 5.14 | – | – | – | – | – | – | – | – | – | – | – | – | –
CN1CCN(Cc2ccc(NC(=O)c3nc4ccc5[nH]ncc5c4c4c3CCC4)cc2C(F)(F)F)CC1 | 1.6 | 2.84 | 1.82 | 2.82 | 2.03 | 1.68 | 0.875 | 1.07 | 0.906 | 1.14 | 0.975 | 0.924 | – | – | – | – | – | – | –
C/C1=C\C/C=C(\C)[C@H]2CC(CC/C(C)=C/CC1)[C@@](C)(CO)O2 | > 100 | > 100 | 77.7 | > 100 | > 100 | > 100 | 84.2 | > 100 | 26.7 | 40.6 | 52.9 | 54.9 | – | – | – | – | – | – | –
